{"source": "patent US20250195519A1", "about": "“COMBINATION OF DASATINIB AND LOVASTATIN FOR USE IN METHODS FOR THE TREATMENT OF CARDIAC FIBROSIS” (INSERM (INSTITUT NATIONAL DE LA SANTÉ ET DE LA RECHERCHE …, priority 2022, published 2025)", "test_system": "human cardiac fibroblasts", "details": "72 h, 10 ng/ml TGFβ; for effect on TGFβ-induced collagen production: Sirius Red", "note": "Where two headings read alike, the source gives them in different places.", "procedure": "Primary cardiac fibroblasts were isolated and cultured according to the method described previously [11]. […] The suspension was centrifuged at 300 g for 5 min and the cell pellet was resuspended in DMEM F12 medium (Sigma D6434) supplemented with 10% FBS, penicillin (20 U/mL)-streptomycin (20 μg/mL) and 2 mM glutamine and cultured in a 37° C., 5% CO2 incubator. Primary cardiac fibroblasts were used up to passage 3. Cardiac fibroblasts were exposed to 10 ng/ml TGFβ (T) for 72 h in the presence or absence of 5 μM lovastatin (L) or 5 nM dasatinib (D) or combination of 5 μM lovastatin and 5 nM dasatinib (DL).\nFollowing treatment, cardiac fibroblasts were fixed in methanol, and incubated in the 0.1% Picrosirius red staining solution (Sigma-Aldrich, France) as per manufacturer's instructions.\nPicrosirius red was solubilised in 0.1 N sodium hydroxide and the optical density was read at 540 nm (SERLABO Technologies, France).\nData are expressed as mean±SEM. Comparison between two groups was performed by Student's two-tailed t-test while comparison of multiple groups was performed by one-way ANOVA followed by a Bonferroni's post hoc test using GraphPad Prism version 5.00 (GraphPad Software, Inc).", "data": [{"smiles": "CCC(C)C(=O)OC1CC(C)C=C2C=CC(C)C(CCC3CC(O)CC(=O)O3)C21", "note": "(stereo not shown) [lovastatin, [8-[2-(4-hydroxy-6-oxo-oxan-2-yl)ethyl]-3,7-dimethyl-1,2,3,7,8,8a-hexahydronaphthalen-1-yl] 2-methylbutanoate]", "values": [{"measurement": "collagen values relative to control", "setting": "5 μM lovastatin", "value": "did not reach control values"}, {"measurement": "effect on TGFβ-induced collagen production", "setting": "5 μM lovastatin", "value": "modest but significant effects"}]}, {"smiles": "Cc1nc(Nc2ncc(C(=O)Nc3c(C)cccc3Cl)s2)cc(N2CCN(CCO)CC2)n1", "note": "[dasatinib, N-(2-chloro-6-methylphenyl)-2-[6-[4-(2-hydroxyethyl)-1-piperazinyl]-2-methyl-4-pyrimidinyl]amino]-5-thiazole carboxamide monohydrate]", "values": [{"measurement": "collagen values relative to control", "setting": "5 nM dasatinib", "value": "did not reach control values"}, {"measurement": "effect on TGFβ-induced collagen production", "setting": "5 nM dasatinib", "value": "modest but significant effects"}]}]}
